The structures appear in SMILES notation. pIC50: −log10 of the molar value.

This assay has as its system H1N1 (influenza A/New Caledonia/20/99). Briefly: Antiviral effect on A549 cells infected with H1N1. The class given is cell-based, H1N1 A/New Caledonia/20/99 virus. Particulars: Human A549 cells, MOI of 0.1, 48 h post-infection, MUNANA hydrolysis readout. On the procedure:
The antiviral effect of the compounds of the invention has been tested on A549 cell lines infected with H1N1 (influenza A/New Caledonia/20/99).
Human A549 cells (80,000 cells/well in a 96 well plate) were treated with a range of concentration of test molecules and immediately infected by H1N1 A/New Caledonia/20/99 virus (clinical isolate) at MOI of 0.1 in DMEM/1% Penicillin/streptomycin supplemented with 0.25 μg/ml TPCK trypsin (Sigma) and incubated at 37° C. in 5% CO2. 48 h post-infection, supernatants (25 μl) were collected and transferred into a 96-well black flat-bottom plate, mixed with 25 μl PBS with Ca++/Mg++(Thermo Fisher) and 50 μl of 2′-(4-Methylumbelliferyl)-α-D-N-acetylneuraminic acid sodium salt hydrate stock-solution (20 μM, MUNANA, Sigma). Plates were incubated 1 h at 37° C. and reaction is stopped by adding 100 μl of Stop Solution (glycine 0.1 M pH10.7/25% ethanol). The amount of fluorescent product released by MUNANA hydrolysis (4-MU) was measured in a Tecan spectrophotometer with excitation and emission wavelengths of 365 and 450 nm respectively.

Setting [1] is: Influenza A virus, H1N1, A549, 48 h.

With `O=C(Nc1sc2c(c1C(=O)O)CCC2)c1ccccc1` [#210], under setting [1], the pIC50 (usually −log10 of the IC50, conventionally taken in molar units) is 6.09.
For `O=C(Nc1sc2c(c1C(=O)O)CCC2)c1ccc(NCC2CCOCC2)cc1` [#211], the pIC50 under setting [1] is 6.59.
With `COC1CN(c2ccc(C(=O)Nc3sc4c(c3C(=O)O)CCCC4)cc2)C1` [#215], under setting [1], the pIC50 is 6.96.
Under setting [1], `O=C(Nc1sc2c(c1C(=O)O)CCCC2)c1ccc(NCC2CCOCC2)cc1` [#216] gave a pIC50 of 7.22. This pIC50 lies 0.26 log units higher than the previous one.
On the same count and under the same terms, with `COC1CN(c2ccc(C(=O)Nc3sc4c(c3C(=O)O)CC(C)(C)OC4(C)C)cc2)C1` [#217] the figure was 6.29; with `COCCNc1ccc(C(=O)Nc2sc3c(c2C(=O)O)CCC3)cc1` [#231], 6.05.
On the same count and under the same terms, with `CC1(C)Cc2c(sc(NC(=O)c3ccc(NC4CCOCC4)cc3)c2C(=O)O)C(C)(C)O1` [#232] the figure was 5.86; with `CC1(C)Cc2c(sc(NC(=O)c3ccc(NCC4CCOCC4)cc3)c2C(=O)O)C(C)(C)O1` [#233], 6.66.
`COCCNc1ccc(C(=O)Nc2sc3c(c2C(=O)O)CC(C)(C)OC3(C)C)cc1` [#234] gave a pIC50 under setting [1] of 6.01.
`CC(C)(C)C1CCc2c(sc(NC(=O)c3ccc(F)cc3)c2C(=O)O)C1` (stereo not shown) [#236] had a pIC50 of 6.88.
Molecule `CC(C)(C)C1CCc2c(sc(NC(=O)c3ccc(F)cc3)c2C(=O)O)C1` (stereo not shown) [#237] gave a pIC50 of 6.68. This pIC50 is 0.20 log units lower than that of the molecule before.
Same read-out and setting: in the case of `CC(C)(C)C1CCc2c(sc(NC(=O)c3ccccc3F)c2C(=O)O)C1` (stereo not shown) [#238] it was 6.51; in that of `Cc1ccccc1C(=O)Nc1sc2c(c1C(=O)O)CCC(C(C)(C)C)C2` (stereo not shown) [#239], 6.26.
